Patent US20020006436A1, “USE OF A LIQUID CRYSTALLINE PHASE FOR DETERMINING THE DISTRIBUTION OF A CHEMICAL SUBSTANCE BETWEEN A HYDROPHOBIC AND A HYDROPHILIC ENVIRONMENT” (priority 1996, published 2002)
Read-outs that look alike come from different tables or passages of the source.

Assays:
[1] = Distribution of clomethiazole between glyceryl monooleate cubic phase bilayer and water phase (water or citrate buffer); format: physicochemical; conditions: 120 h; for Kbl/w, eq. (4) / kbl/w, eq. (4): fw=0.4
Method: The distribution of a substance X between lipids and water in the system is depicted by the following distribution coefficient.
Kbilayer/water=Kbl/w=[X]lipid/[X]water (1),
If both the water phase and the cubic phase are analyzed with reference to their content of the substance X the following distribution coefficient can be determined Kcubic phase/water=KQ/w=[X]Q/[X]w (3), in which [X]Q is the concentration of X in the cubic phase. A relationship between Kbl/w and KQ/w can be derived if the volumetric portion of water in the cubic phase as well as the concentration of X in the water domain of the cubic phase are known. The former can be determined by means of X-ray diffraction. If it is assumed that the concentration of X in the water domain in the cubic phase is [X]w, i.e. the same as in the water phase, the following relationship can be obtained […]
Kbl/w={KQ/w−fw}/{1−fw} (4) in which fw is a volumetric portion of water in the cubic phase.
Clomethiazole (CMZ) is a drug which at a low pH exists in a charged state and at a high pH in a neutral stage. Glyceryl monooleate (Grindsted/Danisco A/S, Brabrand, Denmark), 0.74 ml, was added to each of six vials. Then 0.3 ml water was added to three of the vials, and 0.3 ml citrate buffer, pH 3.4, was added to the remaining three vials. The cubic phase was allowed to be formed overnight. Then 1.0 ml of solutions with different concentrations of CMZ were added to each of the vials.
The contents were analyzed after 120 h with reference to CMZ in the water phase as well as the cubic phase. In this example the constants were vlipid=0.74 ml, v1=0.3 ml, v2=1.0 ml, and fw=0.4. The distribution coefficients Kbl/w were calculated by means of the equations (2) and (4).

[2] = Distribution of lidocaine, cubic phase/water, water solution added after the cubic phase has been formed; format: physicochemical; conditions: for [X]w: cubic phase formed 24 h at 37° C., then further 24 h
[3] = Distribution of lidocaine, cubic phase/water, simultaneous addition of all the water solution; format: physicochemical; conditions: for [X]w: 24 h; for [X]w / Kbl/w: simultaneous addition
Method: wherein [X]lipid/[X]water is the concentration of a substance X in the lipid and the water portion of the system, respectively. In order to be able to determine Kbl/w several methods can be applied. […] Kbl/w ={[…] which [X]w is the concentration of X in the water phase at equilibrium. […] Then 0.5 ml of the respective buffer solution was added to the vials.

[4] = for [X]w: 72 h; for Kbl/w: equation 2, 72 h
From the text: wherein [X]lipid/[X]water is the concentration of a substance X in the lipid and the water portion of the system, respectively. In order to be able to determine Kbl/w several methods can be applied. If vlipid is the lipid volume, v1 is the volume of water solution without the substance X, and v2 is the volume of water solution with the substance X in a concentration of [X]0 mol/liter, the distribution coefficient can be expressed as
Kbl/w ={v2([X]0−[X]w)/[X]w−v1}/vlipid (2),
in which [X]w is the concentration of X in the water phase at equilibrium. Equation 2 can be used if only the water phase and not the lipid phase is analyzed with reference to its content of X.
Glyceryl monooleate, 2 ml, was weighed into three vials, 6 ml of a water solution with 0.033, 0.067, or 0.10 mol NaCl per liter then being added to one of the three vials.
After 72 h the NaCl contents in the three vials were determined by means of conductometrical analysis of the water phases. In this example the constants were vlipid=2 ml, v1=0 ml, and v2=6 ml. The distribution coefficient Kbl/w was calculated by means of equation 2.

[5] = citrate buffer pH 3.4, system I, [X]0 0.28 mg/ml
[6] = citrate buffer pH 3.4, system II, [X]0 1.5 mg/ml
[7] = citrate buffer pH 3.4, system III, [X]0 3.0 mg/ml
[8] = water, system I, [X]0 0.28 mg/ml
[9] = water, system II, [X]0 1.5 mg/ml
[10] = water, system III, [X]0 3.0 mg/ml

## Cc1ncsc1CCCl [Clomethiazole]
[1]; [5]
  Kbl/w, eq. (2): 28.4
  [X]w, concentration in the water phase at equilibrium: 0.014 mg/mL
  citrate, [X]Q, concentration in the cubic phase: 0.243 mg/mL
  Kbl/w, eq. (4): 28.2
[1]; [6]
  Kbl/w, eq. (2): 32.0
  [X]w, concentration in the water phase at equilibrium: 0.067 mg/mL
  citrate, [X]Q, concentration in the cubic phase: 1.188 mg/mL
  Kbl/w, eq. (4): 28.9
[1]; [7]
  Kbl/w, eq. (2): 31.5
  [X]w, concentration in the water phase at equilibrium: 0.136 mg/mL
  citrate, [X]Q, concentration in the cubic phase: 2.366 mg/mL
  Kbl/w, eq. (4): 28.3
[1]; [8]
  Kbl/w, eq. (2): 57.0
  [X]Q, concentration in the cubic phase: 0.243 mg/mL
  [X]w, concentration in the water phase at equilibrium: 0.0072 mg/mL
  kbl/w, eq. (4): 55.6
[1]; [9]
  Kbl/w, eq. (2): 57.9
  [X]Q, concentration in the cubic phase: 1.286 mg/mL
  [X]w, concentration in the water phase at equilibrium: 0.038 mg/mL
  kbl/w, eq. (4): 55.7
[1]; [10]
  Kbl/w, eq. (2): 57.9
  [X]Q, concentration in the cubic phase: 2.463 mg/mL
  [X]w, concentration in the water phase at equilibrium: 0.076 mg/mL
  kbl/w, eq. (4): 53.3

## CCN(CC)CC(=O)Nc1c(C)cccc1C [Lidocaine]
[2]; pH 4, [X]0 1.00 mg/ml
  [X]w: 0.66 mg/mL
[2]; pH 4, equation 2, solution added after cubic phase formed
  Kbl/w: 0.8
[2]; pH 7, [X]0 1.00 mg/ml
  [X]w: 0.22 mg/mL
[2]; pH 7, equation 2, solution added after cubic phase formed
  Kbl/w: 8.4
[2]; pH 10, [X]0 1.00 mg/ml
  [X]w: 0.073 mg/mL
[2]; pH 10, equation 2, solution added after cubic phase formed
  Kbl/w: 31.2
[3]; charged form, from pH 4
  Kbl/w(charged): 0.7
[3]; pH 4, [X]0 1.00 mg/ml
  [X]w: 0.68 mg/mL
[3]; pH 4, equation 2, 24 h
  Kbl/w: 0.7
[3]; pH 7, [X]0 1.00 mg/ml
  [X]w: 0.21 mg/mL
[3]; pH 7, equation 2, 24 h
  Kbl/w: 8.9
[3]; pH 10, [X]0 1.00 mg/ml
  [X]w: 0.073 mg/mL
[3]; pH 10, equation 2, 24 h
  Kbl/w: 31.2
[3]; uncharged form, from pH 10
  Kbl/w(uncharged): 31.2

## [Cl-].[Na+] [NaCl]
[4]; [X]0 0.033 mol/liter
  [X]w: 0.036 mol/L
  Kbl/w: −0.25
[4]; [X]0 0.067 mol/liter
  [X]w: 0.071 mol/L
  Kbl/w: −0.17
[4]; [X]0 0.100 mol/liter
  [X]w: 0.106 mol/L
  Kbl/w: −0.17
